Results as given in PubChem BioAssay (NCI).
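The compound was tested at five concentrations on cells cultured in 96-well plates, with a 48-hour exposure period. GI50 is the concentration that inhibits growth by half. The concentration for full growth arrest is given as TGI.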

Columns and labels:
Experiment in all cases: NCI tumour cell line growth inhibition, 48 h
[1] = system: ACHN renal
[2] = system: A549 NSCLC
[3] = system: OVCAR-3 ovarian
[4] = system: CCRF-CEM leukemia
[5] = system: RPMI-8226 leukemia
[6] = system: HCT-116 colon
[7] = system: HCC-2998 colon
[8] = system: SF-268 CNS
[9] = system: SK-MEL-5 melanoma
[10] = system: A498 renal

| SMILES | GI50 [1] | TGI [1] | GI50 [2] | TGI [2] | GI50 [3] | TGI [3] | GI50 [4] | TGI [4] | GI50 [5] | TGI [5] | GI50 [6] | TGI [6] | GI50 [7] | TGI [7] | GI50 [8] | TGI [8] | GI50 [9] | TGI [9] | GI50 [10] | TGI [10] |
| --- | --- | --- | --- | --- | --- | --- | --- | --- | --- | --- | --- | --- | --- | --- | --- | --- | --- | --- | --- | --- |
| COc1ccc(Cl)cc1NC(=O)C(Br)C(Br)C(=O)O (stereo not given) | 17.2 µM | > 80.5 µM | > 74.3 µM | > 100 µM | 2.63 µM | 6.81 µM | 2.9 µM | > 100 µM | 17.7 µM | > 91.7 µM | 3.09 µM | 9.49 µM | 8.25 µM | 22.2 µM | 4.33 µM | 16.8 µM | 2.39 µM | 7.1 µM | 27.5 µM | 73.2 µM |
| COC(=O)C1(F)C(=O)NC(=O)NC1O (stereo not given) |  | > 100 µM |  | > 100 µM |  | > 100 µM |  | > 100 µM |  | > 100 µM |  | > 100 µM |  | > 100 µM |  | > 100 µM |  | > 100 µM |  | > 100 µM |
| O=C(Nc1ccccc1O)c1ccc(Oc2cccc(C(=O)Nc3ccccc3O)c2)cc1 | 2.64 µM | 11.9 µM | 2.91 µM | 16.6 µM | 3.28 µM | 9.86 µM | 0.409 µM | 9.15 µM | 2.84 µM | 8.78 µM | 2.84 µM | 10.4 µM | 3.62 µM | 11.9 µM | 2.91 µM | 15 µM | 1.13 µM | 2.85 µM | 0.0225 µM | 5.06 µM |
| Cc1ccc2c(O)c(O)cc(NC(C)CCCN)c2n1 (stereo not given) | > 100 µM | > 100 µM | 24.3 µM | > 100 µM | 2.12 µM | 5.26 µM | 3.73 µM | 16.8 µM | 8.89 µM | > 53.2 µM | 3.06 µM | > 40 µM | 9.11 µM | > 51.5 µM | 16.7 µM | 66.2 µM | 9.38 µM | 25.3 µM | > 100 µM | > 100 µM |
| O=C(Nc1ccc(Cl)cc1)c1cc(-c2ccc(Cl)cc2)c2sc(=O)[nH]c2n1 | 2.27 µM | 8.89 µM | 2.49 µM | 12.7 µM | 2.32 µM | 7.45 µM | 2.5 µM | 40.3 µM | 1.21 µM | 14.2 µM | 2.4 µM | 10.8 µM | 2.17 µM | 14.5 µM | 2.56 µM | 22.3 µM | 0.687 µM | 2.99 µM | 0.472 µM | 3.42 µM |
